This passage reports IC50 results from ChEMBL document CHEMBL1135110, “Structure-based design of peptidomimetic antagonists of p56(lck) SH2 domain” (Bioorg Med Chem Lett, 2002).

In the test the target is Tyrosine-protein kinase Lck (Homo sapiens, UniProt P06239). Briefly: Inhibitory activity towards p56 Lck tyrosine kinase SH2 domain using scintillation proximity assay (SPA).

SMILES strings stand for the structures. pIC50: −log10 of the molar value. Non-standard residues stand in square brackets, D forms with d. Residues, ends and D or L forms follow the SMILES beside them. pY = N[C@@H](Cc1ccc(OP(=O)(O)O)cc1)C(=O)O

Sequence of Tyrosine-protein kinase Lck (P06239 whole entry, the tested form may be a part): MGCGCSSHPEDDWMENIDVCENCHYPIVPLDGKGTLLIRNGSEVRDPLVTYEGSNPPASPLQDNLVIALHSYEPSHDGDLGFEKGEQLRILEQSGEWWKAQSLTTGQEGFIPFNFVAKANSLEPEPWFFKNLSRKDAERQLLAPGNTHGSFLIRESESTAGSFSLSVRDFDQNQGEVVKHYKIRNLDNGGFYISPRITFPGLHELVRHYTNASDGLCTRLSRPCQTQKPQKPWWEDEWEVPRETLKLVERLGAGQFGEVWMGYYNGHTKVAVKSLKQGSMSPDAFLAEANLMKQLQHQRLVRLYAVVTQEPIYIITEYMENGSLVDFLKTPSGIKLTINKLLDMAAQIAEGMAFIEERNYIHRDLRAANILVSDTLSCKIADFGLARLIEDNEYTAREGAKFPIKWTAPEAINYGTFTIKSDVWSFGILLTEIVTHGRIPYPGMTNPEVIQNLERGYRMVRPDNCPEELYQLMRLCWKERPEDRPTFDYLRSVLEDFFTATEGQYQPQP

For `CC(=O)N[C@@H](Cc1ccc(OP(=O)(O)O)cc1)C(=O)N[C@H]1CCC(=O)N2CCC[C@@H](C(=O)NCc3ccccc3)N2C1=O`, the negative logarithm of the IC50 (pIC50) (usually the IC50 on a negative log10 scale, so that one unit is a factor of ten) was 5.82.

`CC[C@H](C)[C@H](NC(=O)[C@H](CCC(=O)O)NC(=O)[C@H](CCC(=O)O)NC(=O)[C@H](Cc1ccc(OP(=O)(O)O)cc1)NC(C)=O)C(=O)NC` had a pIC50 of 5.70.

Regarding `CC(=O)N[C@@H](Cc1ccc(OP(=O)(O)O)cc1)C(=O)N[C@H]1CCC(=O)N2CCC[C@@H](C(=O)NCC(C)(C)C)N2C1=O`, the negative-log IC50 (pIC50) was 5.74.

For the molecule `CC[C@H](C)[C@H](NC(=O)[C@@H]1CCCN1C(=O)[C@@H](NC(=O)[C@H](CCC(=O)O)NC(=O)[C@H](CCC(=O)O)NC(=O)[C@H](Cc1ccc(OP(=O)(O)O)cc1)NC(=O)[C@H](CCC(N)=O)NC(=O)[C@@H]1CCCN1C(=O)[C@@H](N)CCC(=O)O)[C@@H](C)CC)C(=O)N[C@@H](Cc1ccc(O)cc1)C(=O)N[C@@H](CC(C)C)C(=O)O` (H-EPQ[pY]EEIPIYL-OH), the negative logarithm of the IC50 (pIC50) was 6.44.

With `CC(=O)N[C@@H](Cc1ccc(OP(=O)(O)O)cc1)C(=O)N[C@H]1CCC(=O)N2CCC[C@@H](C(=O)NC3CC(C(=O)O)c4ccccc43)N2C1=O` (stereo in doubt; 34), the pIC50 is 5.11.

`CC(=O)N[C@@H](Cc1ccc(OP(=O)(O)O)cc1)C(=O)N[C@H]1CCC(=O)N2CCC[C@@H](C(=O)NCc3ccc(O)cc3)N2C1=O` gave a pIC50 of 5.00.

For `CCCNC(=O)[C@@H]1CCCN2C(=O)CC[C@H](NC(=O)[C@H](Cc3ccc(OP(=O)(O)O)cc3)NC(C)=O)C(=O)N12`, the pIC50 is 5.22.

`CC[C@H](C)[C@H](NC(=O)[C@@H]1CCCN2C(=O)CC[C@H](NC(=O)[C@H](Cc3ccc(OP(=O)(O)O)cc3)NC(C)=O)C(=O)N12)C(=O)NC`: the negative logarithm of the IC50 (pIC50) was 5.80.

On to `CC(=O)N[C@@H](Cc1ccc(OP(=O)(O)O)cc1)C(=O)N[C@H]1CCC(=O)N2CCC[C@@H](C(=O)NC3CCc4ccccc43)N2C1=O` (stereo partly specified), for which the pIC50 was 5.92.

In turn, `CC[C@@H](C)CNC(=O)[C@@H]1CCCN2C(=O)CC[C@H](NC(=O)[C@H](Cc3ccc(OP(=O)(O)O)cc3)NC(C)=O)C(=O)N12` showed a pIC50 of 5.92.

In turn, `CC(=O)N[C@@H](Cc1ccc(OP(=O)(O)O)cc1)C(=O)N[C@H]1CCC(=O)N2CCC[C@@H](C(=O)N[C@@H]3C[C@H](C(=O)O)c4ccccc43)N2C1=O` showed a pIC50 of 7.52.

In turn, `CC(=O)N[C@@H](Cc1ccc(OP(=O)(O)O)cc1)C(=O)N[C@H]1CCC(=O)N2CCC[C@@H](C(=O)N[C@H]3C[C@@H](C(=O)O)c4ccccc43)N2C1=O` gave a pIC50 of 5.55.

In the case of `CC(=O)N[C@@H](Cc1ccc(OP(=O)(O)O)cc1)C(=O)N[C@H]1CCC(=O)N2CCC[C@@H](C(=O)NC3CC(C(=O)O)c4ccccc43)N2C1=O` (stereo in doubt; 35), the pIC50 is 5.14.

Consider `CCCCNC(=O)[C@@H]1CCCN2C(=O)CC[C@H](NC(=O)[C@H](Cc3ccc(OP(=O)(O)O)cc3)NC(C)=O)C(=O)N12`, for which the pIC50 is 5.72.

Turning to `CC(=O)N[C@@H](Cc1ccc(OP(=O)(O)O)cc1)C(=O)N[C@H]1CCC(=O)N2CCC[C@@H](C(=O)NCC34CC5CC(CC(C5)C3)C4)N2C1=O`, the pIC50 was 5.96. Against the preceding molecule, the pIC50 is 0.24 log units higher.

Molecule `CC(=O)N[C@@H](Cc1ccc(OP(=O)(O)O)cc1)C(=O)N[C@H]1CCC(=O)N2CCC[C@@H](C(=O)N[C@H]3C[C@H](C(=O)O)c4ccccc43)N2C1=O` showed a negative logarithm of the IC50 (pIC50) of 5.70. Against the preceding molecule, the pIC50 is 0.26 log units lower.

`CC[C@H](C)[C@H](NC(=O)[C@H](CCC(=O)O)NC(=O)[C@H](CCC(=O)O)NC(=O)[C@H](Cc1ccc(OP(=O)(O)O)cc1)NC(C)=O)C(=O)N1CCC[C@@H]1C(=O)NC`: the negative logarithm of the IC50 (pIC50) was 5.80.

In the case of `CC(=O)N[C@@H](Cc1ccc(OP(=O)(O)O)cc1)C(=O)N[C@H]1CCC(=O)N2CCC[C@@H](C(=O)NCc3cccc4ccccc34)N2C1=O`, the pIC50 was 5.72.

`CCCCCNC(=O)[C@@H]1CCCN2C(=O)CC[C@H](NC(=O)[C@H](Cc3ccc(OP(=O)(O)O)cc3)NC(C)=O)C(=O)N12`: the pIC50 was 5.74.

The molecule `CNC(=O)[C@H](CCC(=O)O)NC(=O)[C@H](CCC(=O)O)NC(=O)[C@H](Cc1ccc(OP(=O)(O)O)cc1)NC(C)=O` (Ac-[pY]-Glu-Glu-NHMe) gave a pIC50 of 4.77.

In turn, `CC(=O)N[C@@H](Cc1ccc(OP(=O)(O)O)cc1)C(=O)N[C@H]1CCC(=O)N2CCC[C@@H](C(=O)Nc3cccc4ccccc34)N2C1=O` had a pIC50 of 5.96.

Consider `CC(=O)N[C@@H](Cc1ccc(OP(=O)(O)O)cc1)C(=O)N[C@H]1CCC(=O)N2CCC[C@@H](C(=O)NCC3CCCCC3)N2C1=O`, for which the pIC50 is 5.80.

On to `CC(=O)N[C@@H](Cc1ccc(OP(=O)(O)O)cc1)C(=O)N[C@H]1CCC(=O)N2CCC[C@@H](C(=O)NCc3ccc(Cl)cc3)N2C1=O`, for which the pIC50 is 6.40.

In turn, `CC(=O)N[C@@H](Cc1ccc(OP(=O)(O)O)cc1)C(=O)N[C@H]1CCC(=O)N2CCC[C@@H](C(=O)N[C@@H]3C[C@@H](C(=O)O)c4ccccc43)N2C1=O` gave a pIC50 of 7.00.

The molecule `CNC(=O)[C@H](CCC(=O)O)NC(=O)[C@H](Cc1ccc(OP(=O)(O)O)cc1)NC(C)=O` (Ac-[pY]-Glu-NHMe) had a pIC50 of 3.46.

`CCNC(=O)[C@@H]1CCCN2C(=O)CC[C@H](NC(=O)[C@H](Cc3ccc(OP(=O)(O)O)cc3)NC(C)=O)C(=O)N12`: the pIC50 is 5.07.
